Data taken from ChEMBL document CHEMBL3745709, “Synthesis of novel ethyl 1-ethyl-6-fluoro-7-(fatty amido)-1,4-dihydro-4-oxoquinoline-3-carboxylate derivatives and their biological evaluation” (Bioorg Med Chem Lett, 2016).
≈ marks a conversion by molar mass, not a printed value.

Legend:
[1] = Cytotoxicity against human DU145 cells assessed as reduction in cell viability by MTT assay; type: functional, cell-based; settings: DU-145
[2] = system: A549; test: Cytotoxicity against human A549 cells assessed as reduction in cell viability by MTT assay; type: functional, cell-based
[3] = Cytotoxicity against human SKOV3 cells assessed as reduction in cell viability by MTT assay; type: functional, cell-based; settings: SK-OV-3
[4] = system: MCF7; test: Cytotoxicity against human MCF7 cells assessed as reduction in cell viability by MTT assay; type: functional, cell-based
[5] = Antioxidant activity assessed as DPPH free radical scavenging activity; type: physicochemical
[6] = system: Micrococcus luteus; test: Antibacterial activity against Micrococcus luteus MTCC 2470 assessed as inhibition zone after 24 hrs at 30 degC by well diffusion method; type: functional; settings: MTCC 2470, 24 h
[7] = system: Staphylococcus aureus; test: Antibacterial activity against Staphylococcus aureus MTCC 96 […] after 24 hrs at 30 degC by well diffusion method; type: functional; settings: MTCC 96, 24 h
[8] = system: Staphylococcus aureus; test: Antibacterial activity against Staphylococcus aureus MLS-16 MTCC 2940 assessed as inhibition zone after 24 hrs at 30 degC by well diffusion method; type: functional; settings: MLS-16 MTCC 2940, 24 h
[9] = system: Bacillus subtilis; test: Antibacterial activity against Bacillus subtilis MTCC 121 assessed as inhibition zone after 24 hrs at 30 degC by well diffusion method; type: functional; settings: MTCC 121, 24 h
[10] = system: Escherichia coli; test: Antibacterial activity against Escherichia coli MTCC 739 assessed as inhibition zone after 24 hrs at 30 degC by well diffusion method; type: functional; settings: MTCC 739, 24 h
[11] = system: Pseudomonas aeruginosa; test: Antibacterial activity against Pseudomonas aeruginosa MTCC 2453 assessed as inhibition zone after 24 hrs at 30 degC by well diffusion method; type: functional; settings: MTCC 2453, 24 h
[12] = system: Raoultella planticola; test: Antibacterial activity against Klebsiella planticola MTCC 530 assessed as inhibition zone after 24 hrs at 30 degC by well diffusion method; type: functional; settings: MTCC 530, 24 h
[13] = system: Candida albicans; test: Antifungal activity against Candida albicans MTCC 3017 […] after 24 hrs at 30 degC by well diffusion method; type: functional; settings: MTCC 3017, 24 h
[14] = Cytotoxicity against human IMR90 cells assessed as reduction in cell viability by MTT assay; type: cell-based; settings: IMR-90
[15] = system: IMR-90; test: Selectivity index, ratio of IC50 for human IMR90 cells to IC50 for human DU145 cells; type: functional
[16] = system: A549; test: Selectivity index, ratio of IC50 for human IMR90 cells to IC50 for human A549 cells; type: functional
[17] = system: SK-OV-3; test: Selectivity index, ratio of IC50 for human IMR90 cells to IC50 for human SKOV3 cells; type: functional
[18] = system: IMR-90; test: Selectivity index, ratio of IC50 for human IMR90 cells to IC50 for human MCF7 cells; type: functional

## C=CCCCCCCCCC(=O)Nc1cc2c(cc1F)c(=O)c(C(=O)OCC)cn2CC
[1]
  IC50: 87.3 µM
[2]
  IC50: 66.5 µM
[3]
  IC50: 91.2 µM
[4]
  IC50: 64.6 µM
[5]
  EC50: 147.5 µg/mL (≈ 332 µM)
[6]
  MIC: > 125 µg/mL
[7]
  MIC: > 125 µg/mL
[8]
  MIC: > 125 µg/mL
[9]
  MIC: > 125 µg/mL
[10]
  MIC: > 125 µg/mL
[11]
  MIC: > 125 µg/mL
[12]
  MIC: > 125 µg/mL
[13]
  MIC: > 125 µg/mL

## CCCCCCCCCCCC(=O)Nc1cc2c(cc1F)c(=O)c(C(=O)OCC)cn2CC
[1]
  IC50: 12.1 µM
[2]
  IC50: 10.3 µM
[3]
  IC50: 9.8 µM
[4]
  IC50: 11.2 µM
[14]
  IC50: 79.8 µM
[15]
  Ratio IC50: 6.6
[16]
  Ratio IC50: 7.7
[17]
  Ratio IC50: 8.1
[18]
  Ratio IC50: 7.1
[5]
  EC50: Not Active
[6]
  MIC: > 125 µg/mL
[7]
  MIC: > 125 µg/mL
[8]
  MIC: > 125 µg/mL
[9]
  MIC: > 125 µg/mL
[10]
  MIC: > 125 µg/mL
[11]
  MIC: > 125 µg/mL
[12]
  MIC: > 125 µg/mL
[13]
  MIC: > 125 µg/mL

## CCCCCCCC(=O)Nc1cc2c(cc1F)c(=O)c(C(=O)OCC)cn2CC
[1]
  IC50: 10.1 µM
[2]
  IC50: 9.2 µM
[3]
  IC50: 8.1 µM
[4]
  IC50: 7.9 µM
[14]
  IC50: 91.2 µM
[15]
  Ratio IC50: 9
[16]
  Ratio IC50: 9.9
[17]
  Ratio IC50: 11.2
[18]
  Ratio IC50: 11.5
[5]
  EC50: 109.8 µg/mL (≈ 271 µM)
[6]
  MIC: > 125 µg/mL
[7]
  MIC: > 125 µg/mL
[8]
  MIC: > 125 µg/mL
[9]
  MIC: > 125 µg/mL
[10]
  MIC: > 125 µg/mL
[11]
  MIC: > 125 µg/mL
[12]
  MIC: > 125 µg/mL
[13]
  MIC: > 125 µg/mL

## CCCCCCCCCCCCCCCCCC(=O)Nc1cc2c(cc1F)c(=O)c(C(=O)OCC)cn2CC
[1]
  IC50: 37.1 µM
[2]
  IC50: 32.6 µM
[3]
  IC50: 35.2 µM
[4]
  IC50: 28.4 µM
[5]
  EC50: 798.8 µg/mL (≈ 1470 µM)
[6]
  MIC: > 125 µg/mL
[7]
  MIC: > 125 µg/mL
[8]
  MIC: > 125 µg/mL
[9]
  MIC: > 125 µg/mL
[10]
  MIC: > 125 µg/mL
[11]
  MIC: > 125 µg/mL
[12]
  MIC: > 125 µg/mL
[13]
  MIC: > 125 µg/mL

## CCCCCCCCCCCCCC(=O)Nc1cc2c(cc1F)c(=O)c(C(=O)OCC)cn2CC
[1]
  IC50: 10.4 µM
[2]
  IC50: 9.6 µM
[3]
  IC50: 8.2 µM
[4]
  IC50: 9.1 µM
[14]
  IC50: 86.4 µM
[15]
  Ratio IC50: 8.3
[16]
  Ratio IC50: 9
[17]
  Ratio IC50: 10.5
[18]
  Ratio IC50: 9.4
[5]
  EC50: 286 µg/mL (≈ 585 µM)
[6]
  MIC: > 125 µg/mL
[7]
  MIC: > 125 µg/mL
[8]
  MIC: > 125 µg/mL
[9]
  MIC: > 125 µg/mL
[10]
  MIC: > 125 µg/mL
[11]
  MIC: > 125 µg/mL
[12]
  MIC: > 125 µg/mL
[13]
  MIC: > 125 µg/mL

## CCCCCCCC/C=C/CCCCCCCC(=O)Nc1cc2c(cc1F)c(=O)c(C(=O)OCC)cn2CC
[5]
  EC50: 750.7 µg/mL (≈ 1380 µM)
[6]
  MIC: > 125 µg/mL
[7]
  MIC: > 125 µg/mL
[8]
  MIC: > 125 µg/mL
[9]
  MIC: > 125 µg/mL
[10]
  MIC: > 125 µg/mL
[11]
  MIC: > 125 µg/mL
[12]
  MIC: > 125 µg/mL
[13]
  MIC: > 125 µg/mL
